Laboratory results taken from patent publication US9593305B2, “Differentiation of pluripotent stem cells” (Janssen Biotech, Inc., priority 2008, dated 2017).

Legend:
[1] = tested on: H1 p49C3 cells; assay: Differentiation on microcarrier beads, cell number and CXCR4 by flow cytometry (Example 22); type: cell-based, human; settings: three days
Procedure: H1 p49C3 cells were routinely grown on Cytodex3 beads (GE Healthcare Life Sciences, NJ) in a 125 ml spinner flask, according to the methods described in U.S. Patent Application No. 61/116,447. After seven days, cells and beads were transferred to a 6 well plate at a ratio of 30 cm^2 bead surface area per well, and the plate was placed on a rocking platform. Cells on beads in the positive control treatment well (designated AA/Wnt3a) were differentiated with addition of 100 ng/ml activin A (PeproTech; Cat #120-14) and 20 ng/ml Wnt3a (R&D Systems; Cat #1324-WN/CF) for two days followed by 100 ng/ml activin A and 8 ng/ml bFGF (PeproTech Inc.; Cat #: 100-18B) for one day in RPMI-1640 (Invitrogen; Cat #: 22400) with 2% Fatty Acid Free BSA (MP Biomedicals, Inc; Cat #152401) using volumes of 2 ml/well. Compound 34, at a final concentration of 2.5 nM was added to a negative control treatment well (designated CMP alone (JNJ alone)) in RPMI-1640 with 2% Fatty Acid Free BSA (2 ml/well) for three days in the absence of any other growth factor treatment. […]
At the conclusion of treatment and culture, cells were harvested from the beads, according to the methods described in U.S. Patent Application No. 61/116,447. The harvested cells were counted and analyzed by flow cytometry, according to the methods described above. […]

[2] = tested on: H1 human embryonic stem cells; assay: Step-wise differentiation, high content analysis of cell number, insulin, glucagon after step 5 (Example 17); type: cell-based; settings: GDF-8 in step 1, alone or with a compound
Procedure: Step 5 of the differentiation protocol was carried out over seven days in DMEM-high glucose with 0.1% Albumax, 0.5× Insulin-Transferrin-Selenium, and 1 μM Alk 5 inhibitor. Medium in each well was aspirated and replaced with a fresh aliquot (0.5 ml) on all days. At the conclusion of the fifth step of differentiation, cells from some wells were harvested for analysis by RT-PCR to measure markers of differentiation. Other culture wells were subjected to high content image analysis for protein expression levels of insulin and glucagon.
At the conclusion of culture, assay plates were washed once with PBS (Invitrogen; Cat #14190), fixed with 4% paraformaldehyde (Alexis Biochemical; Cat #ALX-350-011) at room temperature for 20 minutes, then washed three times with PBS and permeabilized with 0.5% Triton X-100 (Sigma; Cat #T8760-2) for 20 minutes at room temperature. […]
Imaging was performed using an IN Cell Analyzer 1000 (GE Healthcare) utilizing the 51008bs dichroic for cells stained with Hoechst 33342 and Alexa Fluor 488. […] Segmentation for the nuclei was determined based on gray-scale levels (baseline range 100-300) and nuclear size. Averages and standard deviations were calculated for each replicate data set. Total protein expression was reported as total intensity or integrated intensity, defined as total fluorescence of the cell multiplied by the area of the cell. […]

Molecule: O=C1CCN2CCN(CC2)Cc2cc(Cl)cc(c2)Nc2ncnc(n2)-c2cncc(c2)CCCN1 [Compound 34, 5-Chloro-1,8,10,12,16,22,26,32-octaazapentacyclo[24.2.2.1˜3.7˜0.1˜9,13˜0.1˜14.18˜]tritriaconta-3(33), 4,6,9(32), 10,12,14(31), 15,17-nonaen-23-one]
- differentiation into CXCR4 positive cells ([1]; Compound 34 alone, no growth factor, Cytodex3 beads): did not differentiate into CXCR4 positive cells
- CXCR4 expression, % of the cells, on average ([1]; Compound 34 with the various growth factor combinations including 50 ng/ml GDF-8, Cytodex3 beads): 50%

Molecule: GDF-8: growth factor GDF-8, also known as myostatin, member of the TGF-β family
- insulin and glucagon expression at the conclusion of step five [2]: resulted in insulin and glucagon expression
